41 molecules from patent publication US10561666B2, “Amido compounds as RORγt modulators and uses thereof” (New York University, priority 2010, dated 2020) can be followed below.

The target in the experiment is RORγt (Mus musculus, UniProt P51450, T352K). As to the kind of experiment: RORγt S2 cell Gal4-luciferase reporter assay. The note with it: for Emax: read-out: Efficacy (%). A general note: In a reporter assay the amount or activity of a reporter protein is the signal.
The mark [1] stands for this setting: IC50(μM), Drosophila S2 cells, Gal4-RORγt luciferase reporter, 20 hr.
The mark [2] stands for this setting: S2 cell RORg IC50 μM, S2 cell reporter assay, listed for comparison.

Structures are written as SMILES.

Sequence of RORγt (P51450 with tags, fused parts or gaps T352K): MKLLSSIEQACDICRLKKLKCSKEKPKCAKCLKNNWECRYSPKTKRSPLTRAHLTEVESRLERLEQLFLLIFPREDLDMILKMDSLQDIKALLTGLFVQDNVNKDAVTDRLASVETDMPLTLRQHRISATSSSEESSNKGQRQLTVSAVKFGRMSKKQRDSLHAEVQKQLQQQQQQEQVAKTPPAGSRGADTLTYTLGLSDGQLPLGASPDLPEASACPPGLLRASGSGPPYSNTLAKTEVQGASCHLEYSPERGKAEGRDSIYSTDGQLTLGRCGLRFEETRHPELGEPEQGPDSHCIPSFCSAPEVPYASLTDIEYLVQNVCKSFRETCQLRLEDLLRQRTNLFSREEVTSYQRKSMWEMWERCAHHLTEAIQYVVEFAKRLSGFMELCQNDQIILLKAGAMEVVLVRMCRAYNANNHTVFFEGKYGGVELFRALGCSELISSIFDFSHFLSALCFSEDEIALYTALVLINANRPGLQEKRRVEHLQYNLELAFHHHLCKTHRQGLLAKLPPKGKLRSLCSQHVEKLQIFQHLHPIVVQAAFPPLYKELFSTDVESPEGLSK
From the text: Methods: The Drosophila S2 cell line was originally purchased from Invitrogen and was maintained in Schneider's medium supplemented with 10% heat-inactivated bovine fetal calf serum and antibiotics (Invitrogen). […] The resulting chimeric gene was subcloned into the copper inducible pMT/V5-His A vector (available from Invitrogen).
In order to generate stable cell lines, cells were co-transfected with pMT-G4DBD-RORγt, pMT-G4DBD-RORα, pMT-G4DBD-DHR3, or pMT-G4DBDVP16 and pHygro plasmids (Invitrogen) and screened for resistant colonies in the presence of hygromycin (0.3 mg/mL).
Methods: 600 G4DBD-RORγ/γt-luc reporter (#25) or G4DBD-VP16-luc reporter cells were distributed into each well of 1,536-well white bottom plates in 4 μl S2 cell culture volume containing hygromicin (300 μg/ml) and puromycin (2 μg/ml). […] After one-hour incubation, 1 μl of culture medium solution containing copper sulfate (to final 0.7 mM) and 10 μM RORγ/γt antagonists were added to each well. After 20-hour incubation at ambient temperature, 1.5 μl firefly luciferase detection mix was added and the luciferase activities were measured in 10 min. ViewLux luminometers were used for measuring luciferase signal.
Since their cognate DNA binding sites were not well characterized, the DNA binding domains (DBD) of RORγ/γt, RORα (mouse homolog for POPγ), and DHR3 (Drosophila orthologue for ROR family proteins) were replaced with the heterologous yeast GAL4 DBD. The transcriptionally active domain of general transcriptional activator VP16 was also fused with GAL4 DBD. The GAL4 fusion constructs were placed under the control of a copper inducible promoter, and stable S2 cell lines with genomic integration of these four reporter constructs were generated. The copper inducible promoter ensures tight regulation of GAL4-fusion protein expression and it allows small molecules to get into the cells prior to protein induction, thus increasing their effects on GAL4 reporters. The stable reporter cell lines also encode the firefly luciferase reporter, whose expression is regulated by five copies of the GAL4 binding site enhancer (UAS), along with the pol III-driven Renilla luciferase reporter.
A cell-based reporter assay was used to detect RORγt-mediated activity. This assay, called RORγt□ employed Drosophila Schneider cells that were stably transfected with two vectors: a gene expressing a fusion of the Gal4 DNA binding domain and RORγt transactivation domain under the control of the metallothionine promoter and a Photinus luciferase reporter regulated by the Gal4 binding site enhancer, UAS. […] Cells (600/well) were dispensed into white solid 1536-well plates (Greiner) using a solenoid-based dispenser. Following transfer of 23 nL compound or DMSO vehicle by a pin tool, the plates were incubated 1 hr at ambient temperature, and 1 uL/well copper sulfate (700 uM final concentration) was added. The plates were centrifuged 15 s at 1000 RPM and incubated 20 hr at ambient temperature. After addition of 1.5 uL Photinus luciferase detection reagent, the plates were incubated 10 min at ambient temperature and then read by a ViewLux (Perkin Elmer) to detect luminescence. […] Efficacy is expressed as % of the maximal response of control inhibitor (Digoxin), set at 100%.

The term IC50 denotes the point on the concentration scale where inhibition reaches its midpoint. Read a high IC50 as weaker potency. On to `COc1cc(O)c(CCC(=O)N2CCCC(C)C2)c(OC)c1` (stereo not shown) [Compound 71], for which, under setting [1], the half-inhibitory concentration (IC50) is more than 50 µM. As to `COc1cc(O)c(C(CC(=O)N2CC(C)CC(C)C2)c2cccc(OC(F)(F)F)c2)c(OC)c1` (stereo not shown) [Compound 93, 1-(3,5-Dimethylpiperidin-1-yl)-3-(2-hydroxy-4,6-dimethoxyphenyl)-3-(3-(trifluoromethoxy)phenyl)propan-1-one], the Emax is 93.3%. The 50% inhibitory concentration (IC50) under setting [1] fell in the range of 1 to 10 µM. On to `CCOc1ccc(O)c(C(CC(=O)N2CCCC(C)C2)c2ccc3c(c2)OCO3)c1` (stereo not shown) [Compound 119], for which the Emax was 94.3%. Under setting [1], this molecule showed an IC50 of 11 to 50 µM. Under setting [2], the 50% inhibitory concentration (IC50) lay within 11 to 20 µM. As for `COc1cc(O)c(C(CC(=O)N2CC(C)CC(C)C2)c2ccc(C(N)=O)cc2)c(OC)c1` (stereo not shown) [Compound 111], the half-inhibitory concentration (IC50) under setting [1] lay within 1 to 10 µM. Take `COc1cc(O)c(C(CC(=O)N2CCCC(C)C2)c2ccc(C(C)C)cc2)c(OC)c1` (stereo not shown) [Compound 64]: the Emax stood at 99.3%. Moreover, under setting [1], the IC50 lay within 1 to 10 µM. Further, the concentration for half-maximal inhibition (IC50) under setting [2] is 1 to 10 µM. For `COc1cc(O)c(C(CC(=O)N2CC(C)CC(C)C2)c2ccc(OCc3ccccc3)cc2)c(OC)c1` (stereo not shown) [Compound 92], the Emax stood at 94.6%. Under setting [1], this molecule showed an IC50 of 1 to 10 µM.

For `O=C(CC(c1ccc2c(c1)OCO2)c1c(O)ccc2ccccc12)N1CCCCC1` (stereo not shown) [Compound 147], the Emax came to 88.1%. The 50% inhibitory concentration (IC50) under setting [1] fell in the range of 11 to 50 µM.

For the molecule `CCN(CC)C(=O)CC(c1ccc2c(c1)OCO2)c1c(O)cc(OC)cc1OC` (stereo not shown) [Compound 39], the Emax is 64.9%. Further, the concentration for half-maximal inhibition (IC50) under setting [1] was 11 to 50 µM. For `COc1ccc(C(CC(=O)N2CCCC(C)C2)c2ccccc2)cc1` (stereo not shown) [Compound 51], under setting [1], the half-inhibitory concentration (IC50) was more than 50 µM. `Cc1cccc(C(CC(=O)NCc2ccco2)c2ccccc2)c1O` (stereo not shown) [Compound 49] yielded an IC50 under setting [1] of more than 50 µM. On to `COc1cc(O)c(C(CC(=O)N2CC(C)CC(C)C2)c2ccc3c(c2)OC(F)(F)O3)c(OC)c1` (stereo not shown) [Compound 104], for which the Emax was 97.3%. The same molecule registered an IC50 under setting [1] of 1 to 10 µM.

As to `CC1CCCN(C(=O)CC(c2ccc3c(c2)OCO3)c2cc(C(C)C)ccc2O)C1` (stereo not shown) [Compound 114], the Emax was determined as 87.3%. This molecule yielded a concentration for half-maximal inhibition (IC50) under setting [1] of 11 to 50 µM. Take `COc1cc(O)c(C(CC(=O)N(C)c2cccc(C)c2)c2ccc3c(c2)OCO3)c(OC)c1` (stereo not shown) [Compound 28]: under setting [1], the concentration for half-maximal inhibition (IC50) was more than 50 µM. For `COc1cc(O)c(C(CC(=O)N2CCCC2)c2ccc3c(c2)OCO3)c(OC)c1` (stereo not shown) [Compound 37], the Emax is 27.1%. Also, under setting [1], the IC50 lay within 11 to 50 µM.

For the molecule `CC1CCCN(C(=O)CC(c2ccc3c(c2)OCO3)c2ccc(F)cc2O)C1` (stereo not shown) [Compound 132], the Emax is 30.4%. The IC50 under setting [1] lay in the range of 1 to 10 µM. For the molecule `Cc1cc(C)c(O)c(C(CC(=O)N2CCCC(C)C2)c2ccc3c(c2)OCO3)c1` (stereo not shown) [Compound 116], the Emax was 48.2%. Under setting [1], the concentration for half-maximal inhibition (IC50) was in the range of 11 to 50 µM. Turning to `Cc1cccc(C(CC(=O)NCCc2ccccc2)c2ccccc2)c1O` (stereo not shown) [Compound 48], the half-inhibitory concentration (IC50) under setting [1] is more than 50 µM.

Regarding `CC(=O)Nc1ccc(C(CC(=O)N2CC(C)CC(C)C2)c2ccc3c(c2)OCO3)c(O)c1` (stereo not shown) [Compound 133], the Emax was determined as 103%. Moreover, the 50% inhibitory concentration (IC50) under setting [1] lay in the range of 1 to 10 µM.

With `COc1cc(O)c(C(CC(=O)N2CC(C)CC(C)C2)c2ccccc2Cl)c(OC)c1` (stereo not shown) [Compound 103], the Emax worked out at 95.8%. Under setting [1], this molecule showed a half-inhibitory concentration (IC50) of 1 to 10 µM. Under setting [1], `CCCN(C(=O)C(C)(C)C(c1ccccc1)c1c(OC)cc(OC)cc1OC)C1CCCC(C)C1` (stereo not shown) [Compound 155] returned a concentration for half-maximal inhibition (IC50) of more than 50 µM.

Consider `COc1cc(O)c(C(CC(=O)N(Cc2ccccc2)Cc2ccccc2)c2ccc3c(c2)OCO3)c(OC)c1` (stereo not shown) [Compound 33], for which, under setting [1], the half-inhibitory concentration (IC50) was more than 50 µM. On to `CC1CCCN(C(=O)CC(c2ccc3c(c2)OCO3)c2c(O)ccc3ccccc23)C1` (stereo not shown) [Compound 118], for which the Emax worked out at 94.9%. Besides, the concentration for half-maximal inhibition (IC50) under setting [1] was 1 to 10 µM. Besides, the half-inhibitory concentration (IC50) under setting [2] was 1 to 10 µM.

In the case of `CCc1ccc(O)c(C(CC(=O)N2CCCC(C)C2)c2ccc3c(c2)OCO3)c1` (stereo not shown) [Compound 112], the Emax amounted to 106%. Moreover, the IC50 under setting [1] was 11 to 50 µM.

Consider `COc1cc(O)c(C(CC(=O)N2CC(C)CC(C)C2)c2cccc(C#N)c2)c(OC)c1` (stereo not shown) [Compound 87, 3-(3-(3,5-Dimethylpiperidin-1-yl)-1-(2-hydroxy-4,6-dimethoxyphenyl)-3-oxopropyl)benzonitrile], for which the Emax was found to be 96.6%. Under setting [1], this molecule displayed a 50% inhibitory concentration (IC50) of less than 1 µM. In turn, `COc1cc(O)c(C(CC(=O)NC2CCCc3ccccc32)c2ccc3c(c2)OCO3)c(OC)c1` (stereo not shown) [Compound 26] gave an IC50 under setting [1] of more than 50 µM. The molecule `CC1CCCN(C(=O)CC(c2ccccc2)c2ccccc2O)C1` (stereo not shown) [Compound 54] returned an IC50 under setting [1] of more than 50 µM. `COc1cc(O)c(C(CC(=O)N2CCCC(C)C2)c2ccc3c(c2)OCO3)c(OC)c1` (stereo not shown) [Compound 3]: the Emax stood at 98.8%. Further, the IC50 under setting [1] was 1 to 10 µM. As to `Cc1ccc(O)c(C(CC(=O)NC2CCCCC2)c2ccccc2)c1` (stereo not shown) [Compound 47], the concentration for half-maximal inhibition (IC50) under setting [1] was more than 50 µM. For `COc1cc(O)c([C@H](CC(=O)N2CC(C)CC(C)C2)c2ccc3c(c2)OCO3)c(OC)c1` (stereo partly shown) [Compound 36], the Emax stood at 91%. In the case of `COc1cc(O)c(C(CC(=O)N2CC(C)CC(C)C2)c2ccc(OCc3ccccc3)cc2)c(OC)c1` (stereo not shown) [Compound 110], the 50% inhibitory concentration (IC50) (Drosophila S2 cells, Gal4-RORγt luciferase reporter, 20 hr) was 1 to 10 µM. On to `COc1cc(O)c(C(CC(=O)N2CCCC(c3ccccc3)C2)c2ccc3c(c2)OCO3)c(OC)c1` (stereo not shown) [Compound 14], for which the Emax was found to be 70.1%. The same molecule had a half-maximal inhibitory concentration (IC50) under setting [1] of 11 to 50 µM. As to `COc1cc(O)c(C(CC(=O)N2CCCC(C)C2)c2ccccc2OC)c(OC)c1` (stereo not shown) [Compound 59], the IC50 reads like this: under setting [1], more than 50 µM; under setting [2], more than 20 µM.

Under setting [1], `CC1CCCN(C(=O)CC(c2ccc3c(c2)OCO3)c2ccc3ccccc3c2O)C1` (stereo not shown) [Compound 68] yielded a half-inhibitory concentration (IC50) of more than 50 µM. Take `COc1cc(OC)c(C(c2ccccc2)C(C)(C)C(=O)N2CC3CC4CC(C3)CC2C4)c(OC)c1` (stereo not shown) [Compound 151]: the Emax stood at 118%. Also, the half-maximal inhibitory concentration (IC50) under setting [1] was more than 50 µM.

With `COc1cc(O)c(C(CC(=O)N2CC(C)CC(C)C2)c2ccc(CN3CCOCC3)cc2)c(OC)c1` (stereo not shown) [Compound 90], the Emax is 99.1%. In addition, under setting [1], the IC50 fell in the range of 1 to 10 µM. In the case of `CCCC1CCN(C(=O)CC(c2ccc3c(c2)OCO3)c2c(O)cc(OC)cc2OC)C1` (stereo not shown) [Compound 9], the Emax is 63.5%. The same molecule gave a half-maximal inhibitory concentration (IC50) under setting [1] of 11 to 50 µM.

`COc1cc(O)c(C(CC(=O)N2CCCCC2)c2ccc3c(c2)OCO3)c(OC)c1` (stereo not shown) [Compound 5]: the Emax came to 90.4%. Besides, the half-inhibitory concentration (IC50) under setting [1] lay within 11 to 50 µM.

In turn, `COc1cc(O)c(C(CC(=O)Nc2ccc(C)cc2)c2ccc3c(c2)OCO3)c(OC)c1` (stereo not shown) [Compound 29] displayed a concentration for half-maximal inhibition (IC50) under setting [1] of more than 50 µM.

Consider `COc1ccc2ccccc2c1C(c1ccc(F)cc1)C(C)(C)C(=O)N1CC(C)CC(C)C1` (stereo not shown) [Compound 157], for which the Emax was found to be 94.4%. This molecule returned a half-inhibitory concentration (IC50) under setting [1] of 1 to 10 µM. On the same counts, the results for `COc1cc(O)c(C(CC(=O)N2CC(C)CC(C)C2)c2ccc(C(=O)NC3CC3)cc2)c(OC)c1` (stereo not shown) [Compound 95] are 93.1% and 1 to 10 µM. `CC1CCCN(C(=O)CC(c2ccc3c(c2)OCO3)c2ccc(I)cc2O)C1` (stereo not shown) [Compound 131]: the Emax was 33.2%. Moreover, under setting [1], the IC50 lay in the range of 11 to 50 µM.
